In patent publication US20040192606A1, “Method of promoting angiogenesis” (priority 1995, published 2004):
Where two headings read alike, the source gives them in different places.

How the values were obtained:
[1] = test system: THP-1 cells; assay: VEGF protein secretion by THP-1 cells (ELISA of conditioned media); assay type: cell-based, human; settings: for inhibition of relaxin-induced VEGF stimulation: PKA inhibitors used at or above their Ki doses, ELISA, data not shown; for VEGF induction: 17 nM (equivalent molar concentration to relaxin)
[2] = test system: THP-1 cells; assay: cAMP levels in THP-1 cells; assay type: cell-based, human
[3] = test system: VEGF transcripts in THP-1 cells; assay: PCR and Southern blot analysis of steady state VEGF mRNA in THP-1 cells; assay type: cell-based, human
[4] = test system: rabbit corneal stroma; assay: Rabbit corneal assay (neo-capillary growth toward implanted hydron disc); assay type: in vivo
Experimental: (§1) In vivo activity for angiogenesis is determined by the rabbit corneal injection protocol and by the matrigel subcutaneous insert vascularization protocol.
Test and control material is mixed with hydron into a 0.1 cc disc (resembling a small contact lens). The disc is implanted into a rabbit corneal stroma micro pocket using appropriate anesthesia for the procedure. After one week, neo-capillary growth toward the disc is measured and scored (0-4) utilizing a standard anatomic grading scale. A score of 0 means no growth. A score of 1 means capillaries (one or two) just entering the corneal stroma from the limbus toward the pocket. A score of 3 means vessels have grown to the base of the implant. A score of 4 means vessels have grown around the implant.

[5] = test system: mouse dorsum (matrigel plug); assay: Murine matrigel subcutaneous insert vascularization assay; assay type: in vivo
Experimental: as §1
Matrigel (Collaborative Biomedical, Bedford, Mass.) is a reconstituted basement membrane complex containing primarily laminin and type IV collagen. It is isolated from the Engelbreth-Holm-Swarm (EHS) murine tumor. At room temperature, matrigel is liquid; but when injected subcutaneously into a mouse it reconstitutes as a gel.
Test substance is mixed with matrigel (1%v/v media in 1 cc matrigel) at room temperature and then injected subcutaneously into a mouse dorsum (5 month old female Swiss-Webster). After one week, the mouse is sacrificed and the gel plug(s) harvested. Samples are fixed in buffered formalin, paraffin embedded, sectioned (4 μ) and H&E stained. The samples are scored 1 (positive), 0.5 (indeterminate) or 0 (negative).

[6] = Serum concentration of relaxin in ongoing clinical trials; assay type: in vivo, human
Experimental: While human dosage levels for treating depression have yet to be optimized for relaxin, generally, a daily dose is from about […] of body weight per day, preferably about […] μg/kg, and most preferably about 12.0 to 100.0 μg/kg. Generally it is sought to obtain a serum concentration of relaxin approximating or greater than normal circulating levels in pregnancy, i.e., 1.0 ng/ml, such as 0.5 to 50 ng/ml, preferably 1.0 to 20 ng/ml. […] Thus, for administration to a 70 kg person, the dosage range would be about 7.0 μg to 3.5 mg per day, preferably about […] to 2.1 mg per day, and most preferably about […] per day. The amount of relaxin administered will, of course, be dependent on the subject and the severity of the affliction, the manner and schedule of administration and the judgment of the prescribing physician.

[7] = test system: THP-1 cells; assay: Other effects on THP-1 cells (morphology, thymidine uptake, metalloproteinase expression, nitric oxide production); assay type: cell-based, human

C[C@]12CC[C@@H]3c4ccc(O)cc4CC[C@H]3[C@@H]1CC[C@@H]2O [17-β-estradiol]
effect on relaxin VEGF stimulation compared to relaxin alone ([1]; 1 μM, simultaneously with relaxin or 48 hours pretreatment): Neither treatment protocol resulted in a difference in VEGF stimulation

O=S(=O)(NCCNC/C=C/c1ccc(Br)cc1)c1cccc2cnccc12 [H-89]
inhibition of relaxin-induced VEGF stimulation [1]: failed to completely inhibit VEGF stimulation

CC(C)Cn1c(=O)n(C)c(=O)c2[nH]cnc21 [IBMX, isobutylmethylxanthing]
Net VEGF Expr ([1]; Exp 1, 50 × 10^−6M, 24 h, net of placebo-treated control, mean ± SEM): 154 ± 46 pg/mL
Net VEGF Expr ([1]; Exp 2, 50 × 10^−6M, 8 h, net of placebo, mean ± SEM): 209 ± 20 pg/mL

CCCCCCOC(=O)[C@]1(O)C[C@@H]2O[C@@]1(C)n1c3ccccc3c3c4c(c5c6ccccc6n2c5c31)C(=O)NC4 [KT5720]
inhibition of relaxin-induced VEGF stimulation [1]: failed to completely inhibit VEGF stimulation

CCCCCCCCCCCCCC(=O)O[C@@H]1[C@@H](C)[C@@]2(O)[C@@H](C=C(CO)C[C@]3(O)C(=O)C(C)=C[C@@H]23)[C@@H]2C(C)(C)[C@]12OC(C)=O [PMA, reference compound]
Net VEGF Expr ([1]; Exp 5, 1 ng/ml, 8 h, net of placebo, mean ± SEM): 342 ± 18 pg/mL
cAMP levels ([2]; 1 ng/ml, data not shown): does not increase cAMP levels

Nc1ncnc2c1ncn2C1CCCO1 (stereo not shown) [SQ22536]
inhibition of relaxin-induced VEGF stimulation [1]: failed to completely inhibit VEGF stimulation

C[C@@H]1C[C@@H]([C@H](O)CC2CC(=O)NC(=O)C2)C(=O)[C@@H](C)C1 [cycloheximide, reference compound]
effect on relaxin-induced increase of VEGF transcripts ([3]; added with recombinant human relaxin (H2)): did not interfere with or amplify this increase

CCCC(=O)Nc1ncnc2c1ncn2[C@@H]1O[C@@H]2COP(=O)(O)O[C@H]2[C@H]1OC(=O)CCC [dbcAMP, Dibutyryl cAMP]
Net VEGF Expr ([1]; Exp 3, 10^−4M, 8 h, net of placebo, mean ± SEM): 488 ± 27 pg/mL
Net VEGF Expr ([1]; Exp 3, 10^−5M, 8 h, net of placebo, mean ± SEM): 142 ± 26 pg/mL
Net VEGF Expr ([1]; Exp 3, 10^−6M, 8 h, net of placebo): -0- pg/ml

CCCC(=O)Nc1nc2c(ncn2[C@@H]2O[C@@H]3COP(=O)(O)O[C@H]3[C@H]2OC(=O)CCC)c(=O)[nH]1 [dbcGMP, dibutyryl cGMP]
Net VEGF Expr ([1]; Exp 3, 10^−6M-10^−4M (each dose), 8 h, net of placebo): -0- pg/ml

Cholera toxin
Net VEGF Expr [1]: 1278 ± 106 pg/mL

IGF-I: member of the relaxin family (Promega)
VEGF induction [1]: Neither IGF-I and IGF-II induced VEGF production

IGF-II: member of the relaxin family (Promega)
VEGF induction [1]: Neither IGF-I and IGF-II induced VEGF production

Pertussis toxin
Net VEGF Expr ([1]; Exp 4, 1 μg/ml, 8 h, net of placebo, mean ± SEM): -0- pg/ml

insulin: member of the relaxin family, compared at 17 nM
VEGF expression relative to that induced by relaxin ([1]; 17 nM): roughly 30%

relaxin
mean score of neo-capillary growth toward the disc (0-4 anatomic grading scale) ([4]; disc in rabbit corneal stroma micro pocket, after one week, n=8, standard error 0.5, placebo 0.6, P 0.08): 1.5
angiogenic activity (conclusion) ([4]; rabbit corneal assay): angiogenic
angiogenic activity (conclusion) ([5]; murine matrigel assay): angiogenic
mean score of gel plugs (1 positive, 0.5 indeterminate, 0 negative) ([5]; subcutaneous matrigel in mouse, after one week, standard error 0.1, control 0.3, P 0.02): 0.8
serum concentration ([6]; dosage about 6.0 μg/kg, ±0.3): about 1.8 ng/ml
serum concentration ([6]; dosage about 12.0 μg/kg, ±0.6): ~3.6 ng/mL
serum concentration ([6]; dosage about 50 μg/kg, ±1.6): ~11.8 ng/mL
time course of VEGF in conditioned media ([1]; 1 ng/ml and 100 ng/ml): increased in the conditioned media in roughly linear fashion up to at least 72 hours
VEGF protein secretion (dose dependence) ([1]; 0.04-50 ng/ml, 8 hours): dose dependent manner
Net VEGF Expr ([1]; Exp 2, 10 ng/ml, 8 h, net of placebo, mean ± SEM): 161 ± 19 pg/mL
relaxin concentration at which VEGF protein secretion peaks ([1]; doses 0.04-50 ng/ml, 8 hours): 1 ng/mL
morphological changes (adherence to plastic, clumping) [7]: no observable morphological changes
time at which increase of VEGF transcripts is detectable ([3]; 10 ng/ml): 30 min
increase of VEGF121, 165 and 189 PCR bands ([3]; 10 ng/ml, by 2 hours): roughly 2 fold
intensity of VEGF transcript bands on Southern blot ([3]; 100 ng/ml): intensity of all bands is increased
cAMP levels ([2]; relaxin treatment, dose not given): causes an increase in cAMP
